In ChEMBL document CHEMBL1201862, “PubChem BioAssay data set” (2004):
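Protocol summary: plate cells (96-well), add compound at 5 concentrations, incubate 48 h, interpolate endpoints linearly. At the GI50, growth is halved.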 The source made the active and inactive calls. No stated cut-off is given here; in the data, active = GI50 up to about 1.1 µM and inactive = higher.

How the values were obtained:
Test in all cases: DTP human tumour cell line panel, 48 h
RXF 393 = tested on: RXF 393
HOP-92 = tested on: HOP-92
IGROV-1 = tested on: IGROV-1
HT-29 = tested on: HT-29
SNB-75 = tested on: SNB-75
UACC-62 = tested on: UACC-62
SK-MEL-28 = tested on: SK-MEL-28
A498 = tested on: A498
OVCAR-5 = tested on: OVCAR-5
MDA-N = tested on: MDA-N
M14 = tested on: M14
SNB-19 = tested on: SNB-19
SK-MEL-2 = tested on: SK-MEL-2
OVCAR-4 = tested on: OVCAR-4
U-251 = tested on: U-251
MOLT-4 = tested on: MOLT-4
SW-620 = tested on: SW-620
HCT-116 = tested on: HCT-116
SK-MEL-5 = tested on: SK-MEL-5
TK-10 = tested on: TK-10

Measured: GI50

CCOC(=O)C1(C#N)OC(=O)c2cnccc21 (stereo unspecified)
inactive: RXF 393 > 100 µM | HOP-92 > 100 µM | IGROV-1 > 100 µM | HT-29 > 100 µM | SNB-75 > 100 µM | UACC-62 > 100 µM | SK-MEL-28 > 100 µM | A498 > 100 µM | OVCAR-5 > 100 µM | MDA-N > 100 µM | M14 > 100 µM | SNB-19 > 100 µM | SK-MEL-2 > 100 µM | OVCAR-4 > 100 µM | U-251 > 100 µM | MOLT-4 > 100 µM | SW-620 > 100 µM | HCT-116 > 100 µM

CN(C)c1ccc(/C=C2\C[C@H]3[C@@H]4CC=C5C[C@@H](O)CC[C@]5(C)[C@H]4CC[C@]3(C)C2=O)cc1
inactive: RXF 393 19.7 µM | SK-MEL-5 50.7 µM | IGROV-1 18 µM | HT-29 16.3 µM | SNB-75 23.2 µM | UACC-62 17.4 µM | SK-MEL-28 16.2 µM | A498 20.9 µM | OVCAR-5 17.9 µM | MDA-N 32.4 µM | M14 16.6 µM | SNB-19 17.1 µM | SK-MEL-2 19.7 µM | TK-10 20.3 µM | OVCAR-4 18.1 µM | U-251 12.9 µM | MOLT-4 79.3 µM | SW-620 30.2 µM | HCT-116 29.2 µM

Cc1sccc1C(=S)Nc1ccc(Cl)c(/C=N/OC(C)(C)C)c1
inactive: RXF 393 17.2 µM | HOP-92 13.9 µM | SK-MEL-5 13.2 µM | IGROV-1 13.5 µM | HT-29 14.3 µM | SNB-75 21.1 µM | UACC-62 16.6 µM | SK-MEL-28 26.6 µM | A498 23.8 µM | OVCAR-5 19.3 µM | MDA-N 13.3 µM | M14 17.9 µM | SK-MEL-2 15.5 µM | TK-10 19.1 µM | OVCAR-4 15.2 µM | U-251 21.6 µM | MOLT-4 7.6 µM | SW-620 37.9 µM | HCT-116 14.1 µM
